# In patent US20160015770A1, “COMPOSITIONS FOR TREATMENT OF RETINAL DETACHMENT” (THE REGENTS OF THE UNIVERSITY OF MICHIGAN, priority 2013, published 2016):
# Non-standard residues stand in square brackets, D forms with d. Residues, ends and D or L forms follow the SMILES beside them. *: point of attachment. Nle = CCCC[C@H](N)C(=O)O; Cbz = O=C(OCc1ccccc1)*
# How the values were obtained:
# detached retina [1] = assay: Experimental retinal detachment, western blot of autophagy markers (Atg5, Atg5-12, LC3-II) in retina; assay type: in vivo; conditions: rat, 50 μg subretinal at time of detachment, 7 days, vs detachments alone
# Method: All experiments were performed in accordance with the ARVO Statement for the Use of Animals in Ophthalmic and Vision Research and the guidelines established by the University Committee on Use and Care of Animals of the University of Michigan. Detachments were created in adult male Brown-Norway rats (300-400 g; Charles River Laboratories, Wilmington, Mass.) as described previously. Briefly, rodents were anesthetized with a 50:50 mix of ketamine/xylazine, and pupils were dilated with topical phenylephrine (2.5%) and tropicamide (1%). A 20-gauge microvitreoretinal blade was used to create a sclerotomy 2 mm posterior to the limbus, carefully avoiding lens damage. A subretinal injector (Glaser, 32-gauge tip; BD Ophthalmic Systems, Franklin Lakes, N.J.) was introduced through the sclerotomy into the vitreous cavity and then through a peripheral retinotomy into the subretinal space. Sodium hyaluronate (10 mg/mL, Healon OVD; Abbott Medical Optics, Uppsala, Sweden) was slowly injected to detach the neurosensory retina from the underlying RPE. In all experiments, approximately one third to one half of the neurosensory retina was detached. Detachments were created in the left eye. The right eye served as the control, with all the steps of the procedure performed except for introduction of the subretinal injector and injection of the sodium hyaluronate. […]
# Retinas from experimental eyes with detachment (detached portion of retina only) and control eyes without detachment were dissected from the RPE-choroid, homogenized, and lysed in buffer containing 10 mM HEPES (pH 7.6), 0.5% IgEPal, 42 mM KCl, 1 mM phenylmethylsulfonyl fluoride, 1 mM EDTA, 1 mM EGTA, 1 mM dithiothreitol, 5 mM MgCl2, and one tablet of protease inhibitors per 10 mL buffer (Complete Mini; Roche Diagnostics GmbH, Madison, Wis.). […] The protein concentration of the supernatant was then determined (DC Protein Assay kit; Bio-Rad Laboratories, Hercules, Calif.). The protein samples were separated on SDS-polyacrylamide gels (Tris-HCl Ready Gels; Bio-Rad Laboratories). […]
# detached retina [2] = conditions: 7 days, compared to untreated detached retinas, prior work (ref 12); cited from earlier work
# calpain 1 = molecular target: T1, calpain 1 (Mus musculus, UniProt O35350); assay: Western blot of calpain 1 specific cleaved alpha-spectrin in 661W cells treated with Fas activating antibody; assay type: cell-based; conditions: 24 hours, inhibitor added 1 hour before Fas activating antibody, compared to Fas activation alone
# T1 construct: endogenous in cells; host or cells: 661W mouse photoreceptor cell line
# T1 sequence (O35350 1-713): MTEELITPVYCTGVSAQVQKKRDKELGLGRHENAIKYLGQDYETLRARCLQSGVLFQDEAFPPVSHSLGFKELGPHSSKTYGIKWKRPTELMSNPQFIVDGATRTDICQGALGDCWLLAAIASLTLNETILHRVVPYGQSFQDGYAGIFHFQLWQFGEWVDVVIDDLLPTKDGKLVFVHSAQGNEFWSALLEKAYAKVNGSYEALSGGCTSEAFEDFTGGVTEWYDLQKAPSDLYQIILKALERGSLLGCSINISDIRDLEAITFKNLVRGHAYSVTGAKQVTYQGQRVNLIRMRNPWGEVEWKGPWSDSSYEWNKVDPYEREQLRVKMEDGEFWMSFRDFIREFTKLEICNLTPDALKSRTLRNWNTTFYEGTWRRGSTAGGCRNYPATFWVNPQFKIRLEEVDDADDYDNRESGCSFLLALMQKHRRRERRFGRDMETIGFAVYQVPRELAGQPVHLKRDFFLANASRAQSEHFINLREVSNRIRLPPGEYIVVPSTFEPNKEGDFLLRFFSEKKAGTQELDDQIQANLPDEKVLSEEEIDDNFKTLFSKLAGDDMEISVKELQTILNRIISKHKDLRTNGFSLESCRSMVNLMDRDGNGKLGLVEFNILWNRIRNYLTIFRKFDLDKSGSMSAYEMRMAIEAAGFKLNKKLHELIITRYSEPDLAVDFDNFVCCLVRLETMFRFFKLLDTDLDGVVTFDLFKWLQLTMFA
# T1 sequence (O88456 1-268 partner): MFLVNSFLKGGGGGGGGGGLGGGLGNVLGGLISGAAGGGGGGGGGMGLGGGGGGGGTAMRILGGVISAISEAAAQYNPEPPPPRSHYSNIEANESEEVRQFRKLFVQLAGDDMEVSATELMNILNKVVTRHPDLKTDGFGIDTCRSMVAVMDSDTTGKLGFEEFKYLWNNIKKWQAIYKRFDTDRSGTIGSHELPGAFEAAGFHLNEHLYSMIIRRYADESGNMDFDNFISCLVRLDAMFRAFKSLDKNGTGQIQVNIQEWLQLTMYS
# Method: The 661W photoreceptor cell line was generously provided by Dr. Muayyad Al-Ubaidi (Department of Cell Biology, University of Oklahoma Health Sciences Center, Oklahoma City, Okla.). The 661W cell line was maintained in Dulbecco's modified Eagle's medium containing 10% fetal bovine serum, 300 mg/L glutamine, 32 mg/L putrescine, 40 μL/L β-mercaptoethanol, and 40 μg/L of both hydrocortisone 21-hemisuccinate and progesterone. The media also contained penicillin (90 units/mL) and streptomycin (0.09 mg/mL). Cells were grown at 37° C. in a humidified atmosphere of 5% CO2 and 95% air.
# Retinas from experimental eyes with detachment (detached portion of retina only) and control eyes without detachment were dissected from the RPE-choroid, homogenized, and lysed in buffer containing 10 mM HEPES (pH 7.6), 0.5% IgEPal, 42 mM KCl, 1 mM phenylmethylsulfonyl fluoride, 1 mM EDTA, 1 mM EGTA, 1 mM dithiothreitol, 5 mM MgCl2, and one tablet of protease inhibitors per 10 mL buffer (Complete Mini; Roche Diagnostics GmbH, Madison, Wis.). 661W cells were plated at 150,000 cells per well in six-well culture dishes in growth media. After 24 hours, the cells were washed one time with warmed PBS solution and then placed in growth media without fetal bovine serum. Depending on experimental conditions, 500 ng/mL Fas activating antibody (BD Biosciences, San Jose, Calif.) and various calpain inhibitors including MDG-28170 (Sigma, St. Louis, Mo.), MG-101 (Sigma, St. Louis, Mo.), calpeptin (Santa Cruz Biotechnology, Santa Cruz, Calif.) or equal volume of DMSO was added. Calpain inhibitors were added 1 hour prior to the addition of Fas activating antibody. The cells were incubated for various lengths of time and then lysed and homogenized in lysis buffer. The homogenates were incubated on ice and centrifuged at 22,000 g at 4° C. for 60 minutes. The protein concentration of the supernatant was then determined (DC Protein Assay kit; Bio-Rad Laboratories, Hercules, Calif.). The protein samples were separated on SDS-polyacrylamide gels (Tris-HCl Ready Gels; Bio-Rad Laboratories). After electrophoretic separation, the proteins were transferred onto polyvinylidene fluoride membranes (Immobilon-P; Millipore, Billerica, Mass.). Membranes were then immunoblotted with antibodies according to the manufacturer's instructions. The following antibodies were used: LC3b (Cell Signaling, Beverly, Mass.), Atg5 (Abgent, San Diego, Calif.), Atg12 (Cell Signaling, Beverly, Mass.), calpain 1 (Cell Signaling, Beverly, Mass.), alpha-spectrin (Santa Cruz Biotechnology, Santa Cruz, Calif.), actin (Sigma, St. Louis, Mo.), and GAPDH (Abcam, Cambridge, Mass.).
# After determining calpain 1 levels, it was looked to correlate this with calpain activity. […]
cleaved alpha-spectrin levels (calpain 1),SMILES,Atg5-12 levels in retina (detached retina [1]),Atg5-12 levels in retina (detached retina [1]; listed as Baf-a),LC3-II level in retina (detached retina [2])
–,CO/C1=C\C(C)=C\[C@@H](C)[C@@H](O)[C@@H](C)C/C(C)=C/C=C/[C@H](OC)[C@@H]([C@@H](C)[C@@H](O)[C@H](C)[C@@]2(O)C[C@@H](O)[C@H](C)[C@@H](C(C)C)O2)OC1=O [Bafilomycin-a],did not appear to be any increase,no significant difference,remain elevated
decreased,CC(C)[C@H](NC(=O)OCc1ccccc1)C(=O)N[C@H](C=O)Cc1ccccc1 [MDG-28170] (Cbz-Val-Phe-aldehyde),–,–,–
decreased,CCCC[C@@H](C=O)NC(=O)[C@H](CC(C)C)NC(=O)[C@H](CC(C)C)NC(C)=O [MG-101] (Ac-Leu-Leu-[Nle]-aldehyde),–,–,–
